Data on 2 compounds can be found in patent publication US5036071A, “Derivatives of purine” (Medivir AB, priority 1984, dated 1991).

One series concerns HSV-2 strain 91075. Put plainly: Treatment of a systemic HSV-2 infection in mice (mortality). The class given is in vivo. The following applies: oral; for Mortality (%) day 6 / Mortality (%) day 9 / Mortality (%) day 12 / Mortality (%) day 15: twice daily for ten days; for Mortality (%) day 6: day 6 post infection; for Mortality (%) day 9: day 9 post infection; for Mortality (%) day 12: day 12 post infection; for Mortality (%) day 15: day 15 post infection. The method, then:
In the following the compound (R)-(+)-9-(3,4-dihydroxybutyl)guanine is denoted VIS 743, the compound (R)-2-amino-9-(3,4-dihydroxybutyl)purine is denoted VSA 305 and Herpes simplex type 2 virus is denoted HSV-2. Mice infected systemically with HSV-2 strain 91075 (10^4 pfu infected i.p.) were treated orally with VIS 743 or VSA 305 twice daily for ten days. Treatment started 1 hour post infection. Mortality was determined on several days post infection.

A short description of series [1]: Plasma concentration of VIS 743 in mice after giving VIS 743 or VSA 305 orally. The format is in vivo. The following applies: 15 mg/kg p.o. The procedure: Mice were given VIS 743 or VSA 305 p.o. Each compound was given in a dosage of 15 mg/kg. The plasma concentrations of VIS 743 were determined by analysis on HPLC, 30, 60, 90 and 120 min after dosage. Each concentration was determined as an average of results from two mice.

For the compound `Nc1nc2c(ncn2CC[C@@H](O)CO)c(=O)[nH]1` [VIS 743, (R)-(+)-9-(3,4-dihydroxybutyl)guanine], in the series on HSV-2 strain 91075 (15 mg/kg), the “Mortality (%) day 6” value was determined as 40%, the “Mortality (%) day 9” value is recorded as 80%, the “Mortality (%) day 12” value is on record as 100% and the “Mortality (%) day 15” value is recorded as 100%. In the series on HSV-2 strain 91075 (30 mg/kg), the “Mortality (%) day 6” value is recorded as 0%, the “Mortality (%) day 9” value is given as 28%, the “Mortality (%) day 12” value came out at 45% and the “Mortality (%) day 15” value amounted to 53%.

For the compound `Nc1ncc2ncn(CC[C@@H](O)CO)c2n1` [VSA 305, (R)-2-amino-9-(3,4-dihydroxybutyl)purine], in series [1], the “biological transformation to VIS 743” value is on record as “biologically transformed to VIS 743”. Further, in the series on HSV-2 strain 91075 (15 mg/kg), the “Mortality (%) day 6” value is reported as 0%, the “Mortality (%) day 9” value is 45%, the “Mortality (%) day 12” value was found to be 50% and the “Mortality (%) day 15” value came out at 53%. In the series with HSV-2 strain 91075 (VSA 305 15 mg/kg vs VIS 743 30 mg/kg), the “effect of a low dose (15 mg/kg) compared with a high dose of VIS 743 (30 mg/kg)” value was “comparable”.
